“And” between values parts separate entries of the source, which are not always exact repeats. Equal values may be shown once. Read-outs that look alike come from different tables or passages of the source.
Experiments:
Assay type in all cases: binding
BRD4(1)^WT [1] = target: T1, BRD4(1)^WT (Homo sapiens, UniProt O60885); assay: Protein LCMS labeling assay 1; settings: for Covalent labeling of purified BRD4(1)^WT detected using LCMS: after 20 h incubation; for Labeled Protein (%) WT 4 h: 50 μM compound, 10 µM protein, 37 °C, mean of three ± s.e.m., ND = not detectable
T1 construct: Characterization of His6-BRD4(1)WT; made in house; host or cells: E. coli BL21 (DE3)
Protocol: Before introducing a Cys mutant into the first bromodomain of BRD4 [BRD4(1)], we wanted to rule out the possibility that the native Cys residues C125 and C136 (Figures 2A and S1), would react with electrophilic fragments. To test this, we incubated two KAc-mimicking methylisoxazole-based reactive fragments (1 and 2, Figure 2C) with purified BRD4(1)^WT.
(§1) The resulting library of 22 fragments was screened for BRD4(1)^L94C binding at a concentration of 50 μM using a protein LCMS assay (referred to as “labeling assay 1”). […] To assess the selectivity of the fragments for the labeling of C94, hits were also screened against BRD4(1)^WT under the same conditions. […] The acrylamide-based fragment, 12, labeled 98% of BRD4(1)^L94C after 4 h. While 95% of the protein was labeled once, 3% of the protein was labeled twice (Figure 5D). […] Fragment 14, designed by appending a β-dimethylaminomethyl acrylamide to the structure of 12, led to 74% of singly labeled BRD4(1)^L94C after 4 h with no labeling of BRD4(1)^WT observed (Table 1 and Figure 5E). […] However, only 9.9% of labeled BRD4(1)^L94C was observed, substantially lower than the 56% labeling observed for the corresponding 3-methyl regioisomer 10 (Table 1). […]
(§2) Assays were performed in 1.5 mL Eppendorf tubes at 37 °C and gently shaken, unless otherwise stated.
(§3) Experiments were performed in a protein LCMS assay buffer, with 10 µM protein, and 50 µM of the desired compound with a final DMSO concentration of 0.5% (Table S16). Time points were taken at 0, 1 and 4 h, unless otherwise stated, where a 20 µL sample of the reaction mix was taken, diluted with 100 µL Milli-Q water, and flash frozen. Samples were thawed immediately prior to LCMS analysis on a Waters Xevo G2-S system (Waters) fitted with a ProSwift™ RP-2H PSDVB Reversed Phase HPLC Column (Thermofisher). Data was analysed and processed using MassLynx. The total ion chromatograms (TIC) were extracted (region containing protein) and the summed scans were deconvoluted (using MaxEnt). Covalent labeling was calculated using intensities of the unlabeled and labeled protein (Equation 1). Figures were made using GraphPad Prism 7.0.
(§4) Table S16. Buffer composition for protein LCMS.
(§5) Buffer Reagent Composition Amount per 1 L
(§6) Protein LCMS Assay Buffer HEPES 25 mM 6.0 g
(§7) Protein Labelling = Intensity of Labelled Peak × 100

BRD4(1)^L94C [2] = target: T2, BRD4(1)^L94C (Homo sapiens, UniProt O60885, L94C); assay: Protein LCMS labeling assay 1; settings: for Labeled Protein (%) L94C 1 h / Labeled Protein (%) L94C 4 h: 50 μM compound, 10 µM protein, 37 °C, mean of three ± s.e.m., ND = not detectable
T2 construct: Characterization of His6-BRD4(1)L94C; made in house; host or cells: E. coli BL21 (DE3)
Protocol: as §1, §2, §3, §4, §5, §6, §7

BRD4(1)^L94C [3] = target: T2, BRD4(1)^L94C; assay: AlphaScreen H4_1–20(KAc)4 peptide displacement
Protocol: Under these conditions, all three fragments displaced the peptide from BRD4(1)^L94C, which is consistent with the fragments binding to BRD4(1)^L94C in the expected location (Table 2). […] The longer the mutant protein and electrophile are incubated together, the more time there is for a covalent interaction to occur. […]
(§8) Dose response AlphaScreen™
(§9) The peptide (Table S17) was supplied at >95% purity by GenScript and was stored as 1 mM stocks in […]
(§10) Table S17. Amino acid sequences of peptides used in AlphaScreen™.
(§11) Peptide Amino Acid Sequence […]
(§12) The assay buffer (Table S18, pH 7.6) was filtered through a 0.22 μm filter before use. The buffer is stored at 4 °C as a 5× solution without bovine serum albumin (BSA), which was added on the day of use. The compounds, proteins, and peptides were dispensed into a ProxiPlate-384 Plus (Perkin Elmer) using a Thermo-Fisher electronic multi-channel pipette. For the incubation steps, the plates were sealed, shaken for 10 seconds at 600 rpm on a plate oscillator, and incubated at room temperature in darkness for 30 min or 3.5 h. Ni2+ chelate acceptor and streptavidin donor beads were prepared as a mixture in a 1:300 dilution (0.007 mg/mL final assay concentration, added to the plates and incubated for a further 30 min at room temperature. Plates were read using a SynergyTM 2 MultiMode Microplate Reader using the inbuilt AlphaScreen™ 384 ProxiPlate function: excitation 680 nm, 0.18 sec; emission […]
(§13) Table S18. Composition of assay buffer used in AlphaScreen™ experiments, adjusted to pH 7.6 using an aqueous NaOH […]
(§14) Reagent Composition Mass (mg) for 50 mL
(§15) 50 mM DMSO stock solutions of the compounds were serially diluted, and dispensed into wells (5 μL).
(§16) The protein-peptide mixes (7 μL) for each combination were prepared following the specified final assay concentration (Table S19), and dispensed into wells. Assay beads (8 μL) were added to attain a final assay volume of 20 μL. Dose response curves were obtained for each compound in triplicate, with serial 1:2 dilutions. Data was processed by fitting a four-parameter equation (Equation 2) to calculate IC50 values using Prism software.
(§17) Table S19. Final assay concentrations of each peptide-protein combination.
(§18) Protein Peptide Protein FAC (nM) Peptide FAC (nM)
(§19) Response = Bottom + Top − Bottom

BRD4(1)^WT [4] = target: T1, BRD4(1)^WT; assay: AlphaScreen H4_1–20(KAc)4 peptide displacement
Protocol: as §8, §9, §10, §11, §12, §13, §14, §15, §16, §17, §18, §19

BRD4(1)^L94C [5] = target: T2, BRD4(1)^L94C; assay: Fluorescent labeling of purified protein (CuAAC with TAMRA-PEG3-azide, in-gel fluorescence); settings: 50 μM probe, 10 μM protein, 4 h, 37 °C, then CuAAC 1 h
Protocol: When 28, 29, 30, and 42 were incubated with either purified BRD4(1)^L94C or BRD4(1)^WT and subjected to a copper(I)-catalyzed alkyne–azide click reaction (CuAAC) reaction with the fluorescent TAMRA-PEG3-azide dye, all clickable probes labeled the mutant protein and could be visualized using fluorescence imaging of a gel (Figure 6).
Figure 6 Clickable probes 28, 29, 30, and 42 covalently label BRD4(1)^L94C and undergo a subsequent CuAAC reaction with TAMRA-PEG3 azide to fluorescently label the protein, as shown by in-gel fluorescence imaging. Compounds 28, 29, 30, 41, and 42 (50 μM) were incubated with purified BRD4(1)^L94C or BRD4(1)^WT (10 μM) for 4 h at 37 °C, followed by CuAAC reaction with TAMRA-PEG3 azide for 1 h and separation of components by SDS-PAGE. For all compounds other than 30, only labeling of BRD4(1)^L94C was observed. […]
Fluorescent labeling of purified proteins
Assays were performed in 1.5 mL Eppendorf tubes at 37 °C, and gently shaken, unless otherwise stated.
The desired click probe (50 µM) was incubated with protein (10 µM) in protein LCMS buffer for 4 h, after which TAMRA-PEG3-Azide (200 µM), TCEP·HCl (1 mM), TBTA (100 µM), and CuSO4 (1 mM) were added and incubated for a further 1 h at room temperature in the dark. A 25 µL sample of the […]
reaction mix was taken and 8 µL of Lamelli buffer added, and the samples denatured by heating at 95 °C for 10 min. Samples were separated by gel electrophoresis on NuPAGE™ 4–12%, Bis-Tris precast polyacrylamide gels (Thermofisher). Following electrophoresis, gels were stained for 15 min with InstantBlueTM Coomasie® stain (Abcam), destained, and imaged using Bio-rad molecular imager.
Bio-rad Image Lab 6.1 was used to process the data. […]
InstantBlueTM Coomasie® stain (Abcam), destained, and imaged using Bio-rad molecular imager. […]
MEM media. Cells were then harvested and lysed using the previously described protocol above. […]

[6] = IC50 (μM) L94C 1 h, 1 h incubation at RT, mean of three ± s.e.m.
[7] = IC50 (μM) L94C 4 h, 4 h incubation at RT, mean of three ± s.e.m.
[8] = 4 h incubation at RT, mean of three ± s.e.m.

| Compound | Labeled Protein (%) L94C 1 h (BRD4(1)^L94C [2]) [%] | Labeled Protein (%) L94C 4 h (BRD4(1)^L94C [2]; 4 h) | Labeled Protein (%) WT 4 h (BRD4(1)^WT [1]) | also measured |
| --- | --- | --- | --- | --- |
| Cc1cc(CCl)on1 [Compound 1] | – | – | – | Covalent labeling of purified BRD4(1)^WT detected using LCMS (BRD4(1)^WT [1]): no covalent labeling |
| Cc1cc(CCl)no1 [Compound 2] | – | – | – | Covalent labeling of purified BRD4(1)^WT detected using LCMS (BRD4(1)^WT [1]): no covalent labeling |
| C=CC(=O)c1cc(C)no1 [Compound 4] | 100 ± 0.0 | 100 ± 0.0% | 83 ± 1.2% | – |
| C=CC(=O)c1cc(C)on1 [Compound 5] | 100.0 ± 0.0 | 100.0 ± 0.0% | 86 ± 7.4% | – |
| C=CC(=O)c1onc(C)c1-c1ccccc1 [Compound 6] | 100 ± 0.0 | 100 ± 0.0% | – | – |
| C#CC(=O)c1cc(C)no1 [Compound 8] | 44 ± 0.6 | 42 ± 1.4% | 29 ± 0.8% | – |
| C#CC(=O)c1cc(C)on1 [Compound 9] | 60 ± 0.7 | 58 ± 1.9% | 22 ± 1.4% | – |
| C=CC(=O)Nc1cc(C)no1 [Compound 10] | 21 ± 1.8 | 56% and 56 ± 0.9% | – | – |
| C=CC(=O)Nc1cc(C)on1 [Compound 11] | 7.6 ± 0.4 | 9.9% and 9.9 ± 0.4% | – | – |
| Cc1noc(C)c1-c1cc(O)cc(C(O)c2cccnc2)c1 (centres unmarked) [OXFBD04 (3), reference compound] | – | – | – | IC50 (BRD4(1)^L94C [3]; IC50, prevention of H4_1–20(KAc)4 peptide binding to BRD4(1)^L94C, equals the 4 h value of Figure S13): 0.08 ± 0.009 µM; IC50 (BRD4(1)^L94C [3]; read-out: IC50 (μM) L94C 1 h, 1 h incubation at RT, mean of three ± s.e.m.): 0.059 ± 0.11 µM; IC50 (BRD4(1)^WT [4]; equals the 4 h value of Figure S14): 0.183 ± 0.025 µM |

More lines, main results first:

| Labeled Protein (%) L94C 1 h (BRD4(1)^L94C [2]) [%] | Labeled Protein (%) L94C 4 h (BRD4(1)^L94C [2]; 4 h) | Labeled Protein (%) WT 4 h (BRD4(1)^WT [1]) | Compound | also measured |
| --- | --- | --- | --- | --- |
| 70 ± 0.6 | 98% and 98 ± 0.2% | 3% and 3.0 ± 0.2% | C=CC(=O)Nc1onc(C)c1-c1ccccc1 [Compound 12] | IC50 (BRD4(1)^L94C [3]; [6]): 5.83 µM and 5.8 µM; IC50 (BRD4(1)^L94C [3]; [7]): 1.27 µM and 1.3 µM; BRD4(1)^L94C protein labeled once (BRD4(1)^L94C [2]; 50 μM, 4 h): 95%; BRD4(1)^L94C protein labeled twice (BRD4(1)^L94C [2]; 50 μM, 4 h): 3%; IC50 (BRD4(1)^WT [4]; [8]): > 100 µM |
| 16 ± 0.7 | 52% and 52 ± 0.9% | – | Cc1cc(NC(=O)/C=C/CN(C)C)on1 [Compound 13] | – |
| 27 ± 2.2 | 74% and 74 ± 2.6% | no labeling | Cc1noc(NC(=O)/C=C/CN(C)C)c1-c1ccccc1 [Compound 14] | IC50 (BRD4(1)^L94C [3]; [6]): 8.69 µM and 8.7 µM; IC50 (BRD4(1)^L94C [3]; [7]): 4.45 µM and 4.4 µM; IC50 (BRD4(1)^WT [4]; [8]): > 100 µM |
| 3.4 ± 0.2 | 15 ± 1.3% | – | C#CC(=O)Nc1cc(C)no1 [Compound 19] | – |
| – | 7.8 ± 0.2% | – | CC#CC(=O)Nc1cc(C)no1 [Compound 20] | – |
| 10 ± 0.7 | 32 ± 0.9% | – | Cc1cc(NC(=O)CCl)on1 [Compound 21] | – |
| 5.9 ± 0.3 | 22 ± 0.4% | – | Cc1noc(NC(=O)CCl)c1-c1ccccc1 [Compound 22] | – |
| 59 ± 1.9 | – | – | C#Cc1ccc(-c2c(C)noc2NC(=O)/C=C/CN(C)C)cc1 [Compound 28] | Labeling of purified BRD4(1)^L94C, in-gel fluorescence (BRD4(1)^L94C [5]): high levels |
| 49 ± 2.0 | – | – | C#CCOc1ccc(-c2c(C)noc2NC(=O)/C=C/CN(C)C)cc1 [Compound 29] | Labeling of purified BRD4(1)^L94C, in-gel fluorescence (BRD4(1)^L94C [5]): high levels |
